In ChEMBL document CHEMBL1201862, “PubChem BioAssay data set” (2004):
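The compound was tested at five concentrations on cells cultured in 96-well plates, with a 48-hour exposure period. Abbreviation: GI50, concentration required for 50% inhibition of growth.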 Activity calls are given as the source filed them. No stated cut-off is given here; in the data, active = GI50 up to about 1.1 µM and inactive = higher.

Assays:
Experiment in all cases: growth of human tumour cells (NCI), 48 h
[1] = test system: UACC-62
[2] = test system: UO-31
[3] = test system: COLO 205
[4] = test system: RPMI-8226
[5] = test system: NCI/ADR-RES
[6] = test system: KM12
[7] = test system: NCI-H226
[8] = test system: ACHN
[9] = test system: OVCAR-8
[10] = test system: SF-268
[11] = test system: HOP-62
[12] = test system: NCI-H23
[13] = test system: SF-295
[14] = test system: NCI-H522
[15] = test system: BT-549
[16] = test system: CAKI-1
[17] = test system: HCT-116
[18] = test system: MDA-MB-435
[19] = test system: T47D
[20] = test system: HCT-15
[21] = test system: 786-0
[22] = test system: SN12C
[23] = test system: SF-539
[24] = test system: EKVX
[25] = test system: Malme-3M
[26] = test system: A498
[27] = test system: MCF7
[28] = test system: OVCAR-4
[29] = test system: SK-MEL-5
[30] = test system: SW-620
[31] = test system: OVCAR-5
[32] = test system: M14
[33] = test system: Hs-578T
[34] = test system: NCI-H460
[35] = test system: MDA-N
[36] = test system: A549
[37] = test system: UACC-257
[38] = test system: LOX IMVI
[39] = test system: K562
[40] = test system: SK-OV-3
[41] = test system: SK-MEL-2
[42] = test system: RXF 393
[43] = test system: PC-3
[44] = test system: SNB-19
[45] = test system: SR
[46] = test system: CCRF-CEM
[47] = test system: U-251
[48] = test system: HCC 2998
[49] = test system: OVCAR-3
[50] = test system: HOP-92
[51] = test system: HT-29
[52] = test system: TK-10
[53] = test system: MDA-MB-231
[54] = test system: MOLT-4
[55] = test system: IGROV-1
[56] = test system: SK-MEL-28
[57] = test system: SNB-75

Measured: GI50

O=c1[nH]c2ccc(Cl)cc2c2oc(-c3ccccc3)nc12
51.6 µM: [20]
inactive: [1] 70.5 µM | [2] 22.1 µM | [3] 65.8 µM | [4] 26 µM | [5] 29.5 µM | [6] 40.8 µM | [7] 21.2 µM | [8] 24.5 µM | [9] 5.62 µM | [10] 36 µM | [11] 20.7 µM | [12] 25.2 µM | [13] 21.6 µM | [14] 16.9 µM | [15] > 100 µM | [16] 21.6 µM | [17] 16.4 µM | [18] 51.6 µM | [19] 19.2 µM | [21] 16 µM | [22] 21.7 µM | [23] 29.3 µM | [24] 30.5 µM | [25] 29.3 µM | [26] 21.3 µM | [27] 6.07 µM | [28] 18.1 µM | [29] 25.9 µM | [30] 44.6 µM | [31] 52.1 µM | [32] 88.5 µM | [33] 15.7 µM | [34] 20 µM | [35] 45.7 µM | [36] 22.1 µM | [37] 52.7 µM | [38] 32.5 µM | [39] 72.6 µM | [40] 24.2 µM | [41] 17.8 µM | [42] 14.1 µM | [43] 29.9 µM | [44] 19.8 µM | [45] 21 µM | [46] 45.5 µM | [47] 20.7 µM | [48] 26.3 µM | [49] 21.2 µM | [50] 28.4 µM | [51] 83.9 µM | [52] 35.5 µM | [53] 19.3 µM | [54] 76.2 µM | [55] 29.1 µM

CC(/C=N/N=C1NCCCN1)=N\N=C1NCCCN1
> 100 µM: [20]
inactive: [1] > 100 µM | [2] > 100 µM | [3] > 100 µM | [4] > 100 µM | [5] > 100 µM | [6] > 100 µM | [7] > 100 µM | [8] > 100 µM | [9] > 100 µM | [10] > 100 µM | [11] > 100 µM | [12] > 100 µM | [13] > 100 µM | [14] > 100 µM | [15] > 100 µM | [16] > 100 µM | [17] > 100 µM | [18] > 100 µM | [19] > 100 µM | [21] > 100 µM | [22] > 100 µM | [23] > 100 µM | [24] > 100 µM | [25] > 100 µM | [27] > 100 µM | [28] > 100 µM | [29] > 100 µM | [30] > 100 µM | [31] > 100 µM | [56] > 100 µM | [32] > 100 µM | [33] > 100 µM | [34] > 100 µM | [35] > 100 µM | [36] > 100 µM | [37] > 100 µM | [38] > 100 µM | [39] > 100 µM | [40] > 100 µM | [42] > 100 µM | [43] > 100 µM | [44] > 100 µM | [45] > 100 µM | [57] > 100 µM | [46] > 100 µM | [47] > 100 µM | [48] > 100 µM | [49] > 100 µM | [50] 40.2 µM | [51] > 100 µM | [52] > 100 µM | [53] > 100 µM | [54] > 100 µM | [55] > 100 µM
